Settings: Liquid

CCCCCCCCCCCCCC(=O)OCC [ethyl tetradecanoate]
viscosity [mPa·s]
Settings | 293.15 K | 313.15 K | 333.15 K | 353.15 K
101.3 kPa, Falling or rolling sphere viscometry | 4.73 | 2.96 | 2.03 | 1.48
101.3 kPa, quartz crystal resonator | 4.73 | 2.96 | 2.03 | 1.48
10000 kPa, quartz crystal resonator | 5.36 | 3.34 | 2.3 | 1.65
20000 kPa, Falling or rolling sphere viscometry | 6.1 | 3.74 | 2.53 | 1.83
20000 kPa, quartz crystal resonator | 6.08 | 3.71 | 2.54 | 1.84
30000 kPa, quartz crystal resonator | 6.83 | 4.15 | 2.82 | 2.03
40000 kPa, Falling or rolling sphere viscometry | 7.68 | 4.64 | 3.09 | 2.22
40000 kPa, quartz crystal resonator | 7.68 | 4.63 | 3.13 | 2.24
50000 kPa, quartz crystal resonator | – | 5.1 | 3.44 | 2.44
60000 kPa, Falling or rolling sphere viscometry | – | 5.67 | 3.73 | 2.66
60000 kPa, quartz crystal resonator | – | 5.67 | 3.76 | 2.66
70000 kPa, quartz crystal resonator | – | 6.22 | 4.08 | 2.91
80000 kPa, Falling or rolling sphere viscometry | – | 6.86 | 4.46 | 3.16
80000 kPa, quartz crystal resonator | – | 6.89 | 4.48 | 3.14
90000 kPa, quartz crystal resonator | – | 7.56 | 4.86 | 3.41
100000 kPa, Falling or rolling sphere viscometry | – | 8.23 | 5.27 | 3.71
100000 kPa, quartz crystal resonator | – | 8.14 | 5.25 | 3.66

CCCCCCCCCCCCCC(=O)OC [methyl tetradecanoate]
viscosity [mPa·s]
Settings | 303.15 K | 313.15 K | 333.15 K | 353.15 K
101.3 kPa, Falling or rolling sphere viscometry | 3.51 | 2.8 | 1.91 | 1.4
101.3 kPa, quartz crystal resonator | 3.51 | 2.8 | 1.91 | 1.4
10000 kPa, quartz crystal resonator | 3.95 | 3.15 | 2.14 | 1.57
20000 kPa, Falling or rolling sphere viscometry | 4.43 | 3.5 | 2.37 | 1.72
20000 kPa, quartz crystal resonator | 4.45 | 3.5 | 2.37 | 1.74
30000 kPa, quartz crystal resonator | 4.95 | 3.91 | 2.61 | 1.92
40000 kPa, Falling or rolling sphere viscometry | 5.51 | 4.31 | 2.89 | 2.08
40000 kPa, quartz crystal resonator | 5.53 | 4.33 | 2.88 | 2.11
50000 kPa, quartz crystal resonator | 6.11 | 4.79 | 3.16 | 2.29
60000 kPa, Falling or rolling sphere viscometry | – | 5.24 | 3.47 | 2.47
60000 kPa, quartz crystal resonator | 6.79 | 5.26 | 3.46 | 2.5
70000 kPa, quartz crystal resonator | – | 5.74 | 3.76 | 2.71
80000 kPa, Falling or rolling sphere viscometry | – | 6.31 | 4.11 | 2.9
80000 kPa, quartz crystal resonator | – | 6.29 | 4.08 | 2.92
90000 kPa, quartz crystal resonator | – | – | 4.46 | 3.14
100000 kPa, Falling or rolling sphere viscometry | – | 7.54 | 4.82 | 3.38
100000 kPa, quartz crystal resonator | – | – | 4.81 | 3.4

— the NIST ThermoML archive (doi:10.1021/acs.jced.5b00612)
